Counter-ions that a name gives are not always drawn.
Columns and labels:
[1] = molecular target: T1, HCV NS3 helicase (Hepatitis C virus genotype 1a, UniProt P27958); test: fluorescence helicase assay based on FRET; type: biochemical; details: dsRNA substrate labeled with Alexa Fluor 700 and Black Hole Quencher 3; 240 nM NS3 helicase; 30 min at 37 °C; triplicate; read-out: IC50 against NS3 helicase
T1 construct: HCV NS3 protein with helicase activity was expressed and purified as previously described; made in house
T1 sequence (P27958 1027-1657): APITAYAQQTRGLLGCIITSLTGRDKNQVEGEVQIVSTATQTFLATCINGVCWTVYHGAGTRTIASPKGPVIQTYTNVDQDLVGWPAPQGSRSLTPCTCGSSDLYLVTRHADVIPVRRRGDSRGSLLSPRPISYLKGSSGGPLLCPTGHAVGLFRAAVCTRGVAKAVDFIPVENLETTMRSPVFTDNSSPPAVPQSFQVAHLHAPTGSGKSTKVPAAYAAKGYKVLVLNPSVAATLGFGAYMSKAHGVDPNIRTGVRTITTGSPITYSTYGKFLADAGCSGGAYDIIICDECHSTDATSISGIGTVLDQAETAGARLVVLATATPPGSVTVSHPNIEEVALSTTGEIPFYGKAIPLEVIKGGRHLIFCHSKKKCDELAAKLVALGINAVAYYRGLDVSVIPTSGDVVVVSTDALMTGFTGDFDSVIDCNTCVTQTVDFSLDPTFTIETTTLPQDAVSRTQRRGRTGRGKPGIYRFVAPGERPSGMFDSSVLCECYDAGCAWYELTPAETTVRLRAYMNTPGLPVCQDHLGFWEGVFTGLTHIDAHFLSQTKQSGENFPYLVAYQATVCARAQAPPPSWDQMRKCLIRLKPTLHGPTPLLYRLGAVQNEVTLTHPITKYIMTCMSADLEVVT
Procedure: For enzymatic inhibition, we used the fluorescence helicase assay based on fluorescence resonance energy transfer (FRET) to examine NS3 helicase inhibition by Compounds 1–4. […] The measured values in triplicate for each concentration of Compounds 1–4 were averaged and divided by the mean value from the negative control sample that contains DMSO instead of Compounds 1–4 to show the NS3 helicase activity as a percentage.
The fluorescence helicase assay based on FRET was conducted as we previously described, except that we used a DNA capture strand rather than an RNA capture strand for which the sequence was complementary to that of the quencher strand. HCV NS3 protein with helicase activity was expressed and purified as previously described. In the assay, when NS3 helicase unwinds the dsRNA substrate, the DNA capture strand binds to the unwound single-stranded RNA (ssRNA) substrate labeled with Black Hole Quencher 3 and prevents the ssRNA substrate from reannealing to the complementary ssRNA substrate labeled with Alexa Fluor 700. […] Thus, the NS3 helicase activity can be monitored by the real-time measurement of the fluorescence intensity of Alexa Fluor 700 through 30 min incubation at 37 °C by using a SpectraMax Gemini XS microplate reader (Molecular Devices, Sunnyvale, CA, USA). The reaction mixture contained 25 mM MOPS-NaOH (pH 6.5), 3 mM MgCl2, 2 mM dithiothreitol, 4 U RNasin (Promega, Madison, WI, USA), 50 nM dsRNA substrate, 400 nM DNA capture strand, 5 mM ATP, a serial dilution of Compounds 1–4 dissolved in DMSO, and 240 nM NS3 helicase in a total reaction volume of 20 μL. The NS3 helicase activity was calculated as the initial reaction velocity relative to that of the control (in the absence of Compounds 1–4 but in the presence of DMSO). The IC50 value was calculated using KaleidaGraph (Synergy Software, Reading, PA, USA) by fitting plots of relative helicase activity (%) vs. [I] using Equation (1):(1) % Activity = 100/1 + ([I]/IC50)^h where h is the Hill coefficient, and [I] is the inhibitor concentration.

[2] = system: HCV subgenomic replicon cell line Huh7/Rep-Feo (genotype 1b, N strain); test: HCV replicon assay (luciferase); type: cell-based; details: Hepatitis C virus, Huh-7, 72 h post-treatment, luciferase activity, read-out: EC50 (50% effective concentration), suppression of HCV replication
Procedure: (§1) Further, we investigated the effect of Compounds 2 and 3 on both viral replication and cell growth in the HCV subgenomic replicon cell line Huh7/Rep-Feo (genotype 1b, N strain). […] This was likely due to its low membrane permeability caused by the negatively charged sulfate group within the molecule in aqueous solution.
The Huh7/Rep-Feo cell line harboring the subgenomic replicon RNA of the N strain (genotype 1b) was seeded at 2 × 10^4 cells per well in a 48-well plate and incubated at 37 °C for 24 h. A serial dilution of Compounds 2 and 3 was added to each well of the plate. The treated cells were harvested 72 h post-treatment and lysed in cell culture lysis reagent (Promega, Madison, WI, USA). Luciferase activity in the harvested cells was estimated with a luciferase assay system (Promega). The resulting luminescence was detected by a Luminescencer-JNR AB-2100 (ATTO, Tokyo, Japan). The anti-HCV activity was calculated as the intensity of the luminescence relative to that of the control (in the absence of Compounds 2 and 3 but in the presence of DMSO).

[3] = Cytotoxicity assay (MTS); type: cell-based; details: human, Huh7/Rep-Feo cells, 72 h post-treatment, read-out: CC50 (50% cytotoxicity concentration)
Procedure: as §1
Huh7/Rep-Feo cells were seeded at a density of 1 × 10^4 cells per well in a 96-well plate and then incubated at 37 °C for 24 h. Compounds 2 and 3 were added to the culture medium to yield various concentrations and were then harvested 72 h post-treatment. Cell viability was determined by a dimethyl thiazolcarboxymethoxyphenyl sulfophenyltetrazolium (MTS) assay using a CellTiter 96 aqueous one-solution cell proliferation assay kit (Promega), according to the manufacturer’s protocol.

[4] = system: hepatitis C virus (HCV) NS3 helicase; details: authentic molecule; read-out: IC50 against NS3 helicase; cited from earlier work

Row | SMILES | IC50 [1] [µM] | EC50 [2] [µM] | CC50 at 72 h [3] [µM] | IC50 [4] [nM]
1 | Cc1cc(O)c2c(=O)c3c(O)cc(OS(=O)(=O)O)cc3cc-2o1 [Compound 1] | 71 | – | – | –
2 | CCCc1cc(O)c2c(=O)c3c(O)cc(OS(=O)(=O)O)cc3cc-2o1 [Compound 2] | 95 | 57 | 52 | –
3 | Cc1cc(O)c2c(=O)c3c(O)c(-c4c(OS(=O)(=O)O)cc(O)c5c(=O)c6c(O)cc(C)oc-6cc45)c(OS(=O)(=O)O)cc3cc-2o1 [Compound 3] | 7 | 67 | 70 | –
4 | CCCc1cc(O)c2c(=O)c3c(O)c(-c4c(OS(=O)(=O)O)cc(O)c5c(=O)c6c(O)cc(C)oc-6cc45)c(OS(=O)(=O)O)cc3cc-2o1 [Compound 4] | 5 | – | – | –
5 | CC(C)CCC[C@@H](C)[C@H]1CC[C@H]2[C@@H]3CC=C4C[C@@H](OS(=O)(=O)O)CC[C@]4(C)[C@H]3CC[C@]12C [cholesterol sulfate] | – | – | – | 1700 ± 200

Source: paper PMC5408263, “Four Aromatic Sulfates with an Inhibitory Effect against HCV NS3 Helicase from the Crinoid Alloeocomatella polycladia” (Marine Drugs, 2017)
